Measured values: patent publication US11434222B2, “MAGL inhibitors” (H. LUNDBECK A/S, priority 2020, dated 2022)
Read-outs that look alike come from different tables or passages of the source.

Columns and labels:
[1] = In vitro human hepatocyte stability; type: in vitro ADME; details: cryopreserved human hepatocytes (pooled donor), human hepatocytes 0.5×10^6 cells/mL, read-out: Scaled-up unbound CLint
Protocol: The metabolic stability of test articles (1 μM) in commercially sourced, pooled donor, cryopreserved human hepatocytes (0.5×10^6 cells/mL) was determined in duplicate. The CLint reactions (250 μL) were initiated by addition of test compound. Aliquots (25 μL) were taken at 0, 15, 30, 45, 60, 90, 120 and 240 minutes and then protein crashed with ice-cold acetonitrile containing internal standard then centrifuged (3220 g for 25 minutes). Supernatant was used for LC-MS/MS analysis. The in vitro half-life (in vitro t1/2) was determined from the slope value: in vitro t1/2=−0.693/k. Conversion of the in vitro t1/2 (in min) into the scale-up unbound intrinsic clearance (Scaled-up unbound CLint, in mL/min/kg) was done using the following equation (mean of duplicate determinations), with data shown in Table 5: Scaled-up unbound CLint=kV/N×scaling factor. V=incubation volume (0.25 mL); N=number of hepatocytes per well ([…]). Scaling factors for in vivo intrinsic clearance prediction are listed below: […]

[2] = Kinetic solubility in PBS; type: physicochemical; details: aqueous buffer, kinetic from dmso stock
Protocol: The kinetic solubility of test articles was determined in PBS at pH 2.0 and pH 7.4 in duplicate. A stock solution of test compound in DMSO (10 mM) was incubated at RT for 2 hours with shaking at 1,100 RPM. The sample was then filtered using a vacuum manifold, diluted, and analyzed by LC-MS/MS. Chromatographic conditions: Phenomenex Synergi 4μ Hydro-PR 80A column (2.0×30 mm) coupled with pre-guard column; mobile phase=0.1% formic acid in acetonitrile and 0.1% formic acid in water; flowrate=0.65 mL/min; column temperature=40° C.; injection volume: 3 μL.
(§1) Mass conditions: Turbo spray ion source; ESI ionization model; MRM scan type; Collison gas=6 L/min; Curtain gas=30 L/min; Nebulize gas=50 L/min; Auxiliary gas=50 L/min; Temperature=500 degrees C.; Ion spray voltage=+5500 v (positive MRM).
(§2) The filtered solution was analyzed and quantified against a standard of known concentration in DMSO using UPLC coupled with mass spectral peak identification and quantitation. Solubility values of the test articles were calculated using Microsoft Excel as follows (DF is the dilution factor): […]

[3] = In vitro rat blood to plasma ratio; type: in vitro ADME; details: 1 μM test compound
Protocol: (§3) Brain disposition was evaluated in male Sprague-Dawley rats (n=3, standard body weight). Briefly, test compound was formulated as a simple suspension, in 0.5% HPMC in water, then administered by oral gavage (5 mg/kg, 5 mL/kg). Four hours post dosing, rats were sacrificed, and terminal blood and brain samples were taken. Blood was obtained via cardiac puncture (0.1 mL) and was added into 0.4 mL CH3CN for precipitation immediately. The samples were stored at −75+/−15° C. prior to analysis. Brain tissue samples were collected after animals were fully exsanguinated, and the tissues were washed with cold saline quickly. After sectioning, brain sections were immediately frozen in liquid nitrogen and stored at −75+/−15° C. prior to analysis. Blood and brain samples were analyzed by LC/MS/MS using an optimized analytical method. Concentrations of test compound in blood and brain were quantified against matrix matched calibration standards. The total blood, plasma, and brain concentration data are presented in Table 2 alongside the calculated brain Kp (total brain concentration:total plasma concentration ratio), the calculated brain kp,uu (unbound brain concentration:unbound plasma concentration ratio), the free fractions in rat plasma and brain, and the in vitro rat blood to plasma distribution profile. The total plasma concentration data were calculated from the total blood concentration data using rat blood to plasma ratio which was measured in vitro (1 μM test compound). For kp,uu determination, the free fraction in rat plasma and brain homogenate were measured in vitro by standard equilibrium dialysis (1 μM test compound and 6 h equilibration against buffer pH 7.4; for rat plasma analysis, 100 mM stock solution of diisopropyl fluorophosphate was added to the pre-warmed rat plasma prior to adding test article).

[4] = Rat Kp, brain disposition after oral gavage; type: in vivo
Protocol: as §3

[5] = Thermodynamic solubility in PBS; type: physicochemical; details: aqueous buffer, thermodynamic from solid; PBS pH 7.4; 24 hours at RT
Protocol: The thermodynamic solubility of test article was determined in PBS at pH 7.4 in duplicate. The test article (1.5 mg) in PBS was incubated for 24 hours at RT with shaking at 1100 rpm. Sample was then filtered using a vacuum manifold, diluted, and analyzed by LC-MS/MS. Chromatographic conditions: Phenomenex Synergi 4μ Hydro-PR 80A column (2.0×30 mm) coupled with pre-guard column; mobile phase=0.1% formic acid in acetonitrile and 0.1% formic acid in water; flowrate=0.65 mL/min; column temperature=40 degrees C.; injection volume: 10 μL.
Mobile phase: 0.1% formic acid in acetonitrile (A) and 0.1% formic acid in water (B)
as §1, §2

MAGL [6] = target: T1, MAGL (Mus musculus, UniProt O35678); test: In vivo MAGL inhibition in mouse brain proteomes after oral gavage; details: 5 mg/kg oral gavage, 4 h after administration, read-out: MAGL % inh. 5 mg/kg (mouse)
T1 construct: brain proteomes were prepared and analyzed according to previously established methods; from tissue; host or cells: brain of wild-type C57Bl/6J mice
T1 sequence (O35678 1-303): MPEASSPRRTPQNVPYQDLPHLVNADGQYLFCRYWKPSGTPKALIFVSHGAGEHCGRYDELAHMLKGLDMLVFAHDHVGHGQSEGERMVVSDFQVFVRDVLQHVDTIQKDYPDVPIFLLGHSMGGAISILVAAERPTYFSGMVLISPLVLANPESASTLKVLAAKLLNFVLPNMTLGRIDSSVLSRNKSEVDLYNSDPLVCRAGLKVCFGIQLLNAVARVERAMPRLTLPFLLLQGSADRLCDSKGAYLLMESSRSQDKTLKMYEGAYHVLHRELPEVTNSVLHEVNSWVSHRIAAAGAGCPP
Protocol: Inhibitors were administered to wild-type C57B1/6J by oral gavage in a vehicle of polyethylene glycol. Each animal was sacrificed 4 h following administration and brain proteomes were prepared and analyzed according to previously established methods (See Niphakis, M. J., et al. (2011) ACS Chem. Neurosci. and Long, J. Z., et al. Nat. Chem. Biol. 5:37-44).

[7] = Free fraction in rat plasma and brain homogenate by equilibrium dialysis; type: in vitro ADME
Protocol: as §3

MAGL [8] = target: T2, MAGL (Homo sapiens, UniProt Q99685); test: In vitro competitive activity-based protein profiling (PC3 human cell membrane proteomes); type: biochemical
T2 construct: PC3 human cell membrane proteomes; endogenous in cells; host or cells: PC3 human cells (membrane proteome)
T2 sequence (Q99685 1-303): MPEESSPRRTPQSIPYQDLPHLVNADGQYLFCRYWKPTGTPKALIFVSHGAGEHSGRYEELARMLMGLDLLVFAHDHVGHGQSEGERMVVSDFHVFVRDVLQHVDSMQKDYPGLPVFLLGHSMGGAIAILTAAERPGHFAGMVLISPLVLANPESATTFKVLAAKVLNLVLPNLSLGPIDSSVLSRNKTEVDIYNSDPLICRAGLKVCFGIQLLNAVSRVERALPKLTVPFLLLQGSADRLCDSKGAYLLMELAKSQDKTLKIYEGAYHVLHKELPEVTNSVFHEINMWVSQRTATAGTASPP
Protocol: PC3 human cell membrane proteomes (50 µL, 2.0 mg/mL total protein concentration) were preincubated with varying concentrations of inhibitors at 37° C. After 30 min, the ABPP probe JW912-Bodipy (1.0 µL, 50 µM in DMSO) was added and the mixture was incubated for 30 min at room temperature. Reactions were quenched with SDS loading buffer (15 μL-4×) and run on SDS-PAGE. Following gel imaging, serine hydrolase activity was determined by measuring fluorescent intensity of gel bands corresponding to MAGL using ImageJ 1.43u software. Intensities were converted to percent enzyme activity by normalizing to DMSO controls. IC50 values were determined by fitting percent enzyme activities to a non-linear regression, 4-parameter, sigmoidal dose response function in Prism GraphPad.

[9] = PBS pH 2.0, RT, read-out: pH 2 Solubility (kinetic)
[10] = PBS pH 7.4, RT, read-out: pH 7.4 Solubility (kinetic)
[11] = 5 mg/kg oral gavage, 4 h post dosing, mean n = 3

| SMILES | CLint scaled at 1 μM [1] | solubility kinetic at 2 h [2, 9] | solubility kinetic at 2 h [2, 10] | inhibition at 5 mg/kg (MAGL [6]) | other results |
| --- | --- | --- | --- | --- | --- |
| O=C(Nc1cccnc1)[C@H]1CC12CCN(C(=O)OC(C(F)(F)F)C(F)(F)F)CC2 (single isomer, unassigned) [Example 2] | 34.8 mL/min/kg | 30.3 µM | 189 µM | 100% | blood plasma ratio at 1 μM [3]: 0.833; Total plasma concentration ([4]; 5 mg/kg oral gavage, 4 h, calculated from total blood concentration using blood to plasma ratio): 0.066 µM; Total blood concentration [4, 11]: 0.049 µM; Total brain concentration [4, 11]: 0.199 µM; Kp at 4 h ([4]; male, Sprague-Dawley, po, total brain concentration:total plasma concentration ratio, 5 mg/kg p.o., 4 h): 3.01; Kp uu at 4 h ([4]; male, Sprague-Dawley, po, unbound brain concentration:unbound plasma concentration ratio, 5 mg/kg p.o., 4 h): 0.925; solubility thermodynamic at 24 h [5]: 91.8 µg/mL; fraction unbound at 6 h, 1 μM ([7]; rat brain homogenate, buffer pH 7.4, read-out: Rat brain free fraction): 0.024; fraction unbound at 6 h, 1 μM ([7]; rat plasma, buffer pH 7.4, read-out: Rat plasma free fraction): 0.078 |
| CP(C)(=O)c1ccc(NC(=O)C2CC23CCN(C(=O)OC(C(F)(F)F)C(F)(F)F)CC3)cn1 (single isomer, unassigned) [Example 20, 1,1,1,3,3,3-hexafluoropropan-2-yl (R or S)-1-((6-(dimethylphosphoryl)pyridin-3-yl)carbamoyl)-6-azaspiro[2.5]octane-6-carboxylate] | 0.85 mL/min/kg | – | 310 µM | 0% | – |
| O=C(Nc1ccncc1)C1CC12CCN(C(=O)OC(C(F)(F)F)C(F)(F)F)CC2 (single isomer, unassigned) [Example 24, 1,1,1,3,3,3-hexafluoropropan-2-yl (R or S)-1-(pyridin-4-ylcarbamoyl)-6-azaspiro[2.5]octane-6-carboxylate] | 11.9 mL/min/kg | – | 197 µM | 90% | – |
| O=C(Nc1cncc(F)c1)C1CC12CCN(C(=O)OC(C(F)(F)F)C(F)(F)F)CC2 (single isomer, unassigned) [Example 40, 1,1,1,3,3,3-hexafluoropropan-2-yl (R or S)-1-((5-fluoropyridin-3-yl)carbamoyl)-6-azaspiro[2.5]octane-6-carboxylate] | 43.2 mL/min/kg | 163 µM | 100 µM | 100% | MAGL % inh. 1 µM (human PC3) (MAGL [8]): 100% |
| O=C(Nc1cncnc1)C1CC12CCN(C(=O)OC(C(F)(F)F)C(F)(F)F)CC2 (single isomer, unassigned) [Example 96, 1,1,1,3,3,3-hexafluoropropan-2-yl (R or S)-1-(pyrimidin-5-ylcarbamoyl)-6-azaspiro[2.5]octane-6-carboxylate] | 17.1 mL/min/kg | – | 237 µM | 100% | – |
| Cc1cnc(NC(=O)C2CC23CCN(C(=O)OC(C(F)(F)F)C(F)(F)F)CC3)cn1 (single isomer, unassigned) [Example 112, 1,1,1,3,3,3-hexafluoropropan-2-yl (R or S)-1-((5-methylpyrazin-2-yl)carbamoyl)-6-azaspiro[2.5]octane-6-carboxylate] | 9.59 mL/min/kg | 185 µM | 109 µM | 75% | – |
| O=C(NCC1CCOCC1)[C@H]1CC12CCN(C(=O)OC(C(F)(F)F)C(F)(F)F)CC2 (single isomer, unassigned) [Example 117] | 20.6 mL/min/kg | – | 251 µM | 100% | – |
| Cn1ccc(NC(=O)C2CC23CCN(C(=O)OC(C(F)(F)F)C(F)(F)F)CC3)n1 (single isomer, unassigned) [Example 127, 1,1,1,3,3,3-hexafluoropropan-2-yl (R or S)-1-((1-methyl-1H-pyrazol-3-yl)carbamoyl)-6-azaspiro[2.5]octane-6-carboxylate] | 9.51 mL/min/kg | 275 µM | 292 µM | 75% | – |
| Cn1nccc1NC(=O)C1CC12CCN(C(=O)OC(C(F)(F)F)C(F)(F)F)CC2 (single isomer, unassigned) [Example 135, 1,1,1,3,3,3-hexafluoropropan-2-yl (R or S)-1-((1-methyl-1H-pyrazol-5-yl)carbamoyl)-6-azaspiro[2.5]octane-6-carboxylate] | 16.8 mL/min/kg | – | – | 100% | – |
| O=C(Nc1nccs1)C1CC12CCN(C(=O)OC(C(F)(F)F)C(F)(F)F)CC2 (single isomer, unassigned) [Example 138, 1,1,1,3,3,3-hexafluoropropan-2-yl (R or S)-1-(thiazol-2-ylcarbamoyl)-6-azaspiro[2.5]octane-6-carboxylate] | 40.5 mL/min/kg | – | – | 75% | – |
